Patent publication US20250250613A1, “DISCOVERY OF BACTERIAL AIEGEN THAT LIGHTS UP SPECIFIC G-QUADRUPLEXES” (Southern Marine Science and Engineering Guangdong …, priority 2024, published 2025)

Tests used:
[1] = tested on: regular double-stranded or single-stranded, or hairpin-structure nucleotides; assay: Photoluminescence and NMR titration with non-G4 oligonucleotides; type: binding
From the text: Conventional fluorescent probes rely on hydrophobic aromatic rings and π-conjugated chromophores^22. However, their tendency to aggregate in hydrophobic pockets upon binding to nucleic acid strands in aqueous environments often results in the quenching of emitted light. Conversely, AIEgens excel in aqueous media, evading aggregation-caused quenching. […] In embodiments, binding to G4s restricts the mobility of HMPQ molecules, leading to a significant enhancement in fluorescence intensity. CD spectra confirm that HMPQ maintains the original conformation of G4s and its high biocompatibility enables visualization of G4s within the cellular nucleus.
To verify whether the compounds interacted with G4 DNA, we performed NMR titration experiments by running 1D ^1H NMR spectra at 25° C. All compounds were dissolved in isotope-labelled d6-DMSO (from Sigma-Aldrich) at about 50 mM concentration as stock solutions. To avoid chemical shifts of G4 samples resulting from d6-DMSO addition, 10 μL of d6-DMSO was added into 500 μL of 0.1 mM G4 solution in the NMR buffer (20 mM potassium phosphate buffer and 70 mM KCl, pH 7.0, 10% D2O). Then, a 1D ^1H-NMR spectrum was obtained as a reference. […]
In addition to fluorescence spectroscopy tests, we performed NMR titration as another prevalent method for assessing binding affinity. […]

[2] = tested on: c-kit2 (SEQ ID NO: 3) DNA G4; assay: Photoluminescence test of HMPQ with c-kit2 G4 (turn-on, Stern-Volmer plot, LOD); type: binding
Protocol: Single DNA nucleotides were purchased from Integrated DNA Technologies. The DNA sample at 100 μM (single strands) was then re-annealed by heating to 95° C. for 15 min, followed by slow cooling to room temperature overnight in an annealing buffer of 70 mM KCl and 20 mM potassium phosphate (pH 7.0). The final NMR samples contained 0.1 mM DNA or RNA in 20 mM potassium phosphate buffer (pH 7.0) and 70 mM KCl.
The intriguing conformational change observed in HMPQ led to exceptional emission performance, prompting us to explore its application as a fluorescent probe. The inherent two-planar aromatic rings of HMPQ offer the potential for interaction with the guanine tetrad or conjugation with side chains of novel nucleic acid secondary structures, G4s^45,46. To evaluate the binding affinity of HMPQ, a series of photoluminescence tests was conducted using various G4 samples introduced with HMPQ (Table 5).
To delve deeper into the sensitivity of HMPQ as a fluorescent G4 probe, the PL spectra of HMPQ (0.15 mM) were obtained with varying concentrations of c-kit2, as illustrated in FIG. 5B. […] According to the equation for limit of detection (LOD), LOD=3 SB/m (SB=the standard deviation of the repeated 10 blank measurements, and m=the slope of the relative intensity over […]), it was calculated as 28.7 nM^49,50. […]

[3] = tested on: HEK293 cells; assay: Cytotoxicity assay (thiazolyl blue tetrazolium bromide), HEK293; type: cell-based, human; conditions: even at 100 μM, 24 h
Protocol: (§1) HEK293 and HeLa cells were purchased from ATCC, and HT22 cells were purchased from Sigma-Aldrich. They were cultured in Dulbecco's modified Eagle's medium (Thermo Fisher Scientific, 11965092) with 10% fetal bovine serum (Thermo Fisher Scientific, 26140079) and 1% penicillin-streptomycin at 37° C. in a humidified incubator with 5% CO2. After 1 day of cell culture, cells were seeded onto 96-well plates with a density of 5000 cells in each well and cultured for another 24 h. Then, HMPQ with different concentrations was added and treated for 24 h. After incubating with 20 μL of thiazolyl blue tetrazolium bromide (5 mg/mL in PBS buffer; Sigma-Aldrich) for 4 h, supernatants were removed, and 100 μL of DMSO was added to dissolve formazan. After shaking for 5 min in darkness, a Multiskan FC microplate was used to measure absorbance at 570 nm.

[4] = tested on: HeLa cells; assay: Cytotoxicity assay (thiazolyl blue tetrazolium bromide), HeLa; type: cell-based, human; conditions: even at 100 μM, 24 h
Protocol: as §1

[5] = tested on: c-kit2 G4; assay: CD spectroscopy of c-kit2 G4 with HMPQ; type: binding
Protocol: (§2) CD spectra of G4s with HMPQ were recorded on a Chirascan CD spectrometer at room temperature from 220 nm to 320 nm under liquid mode. A 1 mm-path-length quartz cuvette was used with a 400 μL sample. Each G4 sample was prepared at the same concentration of 15 μM. The compound was mixed with G4s at a molar ratio of 1:10. Each test was scanned three times, and the background of the buffer was subtracted.

[6] = tested on: immortalized mouse hippocampal neuronal cells HT22; assay: Cytotoxicity assay (thiazolyl blue tetrazolium bromide), HT22; type: cell-based; conditions: even at 100 μM, 24 h
Protocol: as §1

[7] = Absolute quantum yield of HMPQ in different states; type: physicochemical; conditions: for Quantum Yield (%): excitation 320 nm
Protocol: Streptomyces chrestomyceticus BCC24770 was acquired from the Thailand Bioresource Research Centre. All oligonucleotides used were bought from Integrated DNA Technologies company (Singapore). NMR spectra were recorded on a 500 M or 800 M Varian spectrometer at 25° C. HRMS data were recorded on a Xevo G2-XS QTOF mass spectrometer from Water's. HPLC analysis or preparation was performed using a Waters HPLC system (Waters 2695 Separations Module; Milford, USA) and monitored under a Waters 2998 Photodiode Array Detector. Semi-preparative HPLC was performed using a Phenomenex Luna C18 column (250 mm×10 mm in size) and designed for a particle size of 5 μm. Single-crystal XRD data were collected on a Rigaku-Oxford Diffraction Supernova Dual Atlas diffractometer. Crystal photos were taken under Nikon ECLIPSE Ts2R fluorescence microscopes. CD spectra were collected using Chirascan Circular Dichroism (CD) Spectrometers. UV-vis absorption spectra were obtained under a Shimadzu UV-2600 spectrophotometer (medium scanning rate and quartz cuvettes of 2 cm path length). Photoluminescence spectra were recorded on an Edinburgh FS5 Spectrofluorometer. Absolute quantum yield was collected using an integrating sphere on a Hamamatsu Quantum Yield Spectrometer C11347 Quantaurus. All digital photographs were recorded on a Canon EOS 7D camera. A Leica SP8 confocal microscope was used for cell imaging.
After observing the strong emission of crystalline-state HMPQ, we studied its photophysical properties in a polymer matrix. HMPQ was dissolved and blended with the common polymer poly(methyl methacrylate) (PMMA)^39. A series of films was prepared by coating mixtures with varying weight percentages (wt %) of HMPQ onto a quartz substrate. The resulting films, containing different wt % of HMPQ, were analysed to measure their photoluminescence (PL) and quantum yield (QY) (FIGS. 3A-3D and 14, Table 2).

[8] = tested on: G4s in HeLa cells; assay: Confocal cell imaging, co-localization with G4-specific antibody BG4; type: cell-based, human
Protocol: HeLa cells were seeded onto a 12-well plate with coverslips at 37° C. and 5% CO2 for 1 day and incubated with HMPQ at 10 μM overnight. The next day, cells were fixed with 4% paraformaldehyde for 15 min at room temperature and then permeabilized with 0.2% Triton X-100 in PBS for another 10 min. G4-specific antibodies BG4 (Sigma-Aldrich, cat. no. MABE 1126) were added at 1:500 dilution for staining and incubated overnight at 4° C. Cells were washed three times with PBS and then incubated with secondary antibodies (Alexa 647 anti-rabbit for G4) at 1:1000 dilution for 1 h at room temperature. After washing the cells with PBS three times to remove excess secondary, the cells were incubated with DAPI for 5 min and washed with PBS once. The cells on slides were then air dried, mounted onto a Hydromount medium, and observed using a Leica SP8 confocal microscope.

[9] = tested on: c-kit1 G4; assay: CD spectroscopy of c-kit1 G4 with HMPQ; type: binding
Protocol: as §2

[10] = tested on: c-myc G4; assay: CD spectroscopy of c-myc G4 with HMPQ; type: binding
Protocol: as §2

In the case of `CCC(=O)c1ccc(OC)c(-c2nc3ccccc3c(=O)[nH]2)c1O` [HMPQ, 2-(2-hydroxy-6-methoxy-3-propionylphenyl)quinazolin-4(3H)-one], the “interaction with non-G4 nucleotides” value [1] is reported as “no interaction”, the “fluorescence enhancement at 497 nm upon interaction with c-kit2” value ([2]; 20 mM KH2PO4 buffer, 70 mM KCl, pH 7.0) is reported as “around 300 fold” and the Stern-Volmer constant m ([2]; HMPQ 0.15 mM, c-kit2 0 μM to 50 μM) is reported as 1.94e+06 M⁻¹. The cytotoxicity [3] was “no cytotoxicity”, the cytotoxicity [4] was “no cytotoxicity” and the “effect on original G4 conformation (CD spectrum)” value (“effect” for short) [5] was “non-disruptive”. The cytotoxicity [6] was “no cytotoxicity”, the QY ([7]; 30 wt % film (HMPQ in PMMA)) was 30.5% and the “Quantum Yield (%)” value ([7]; Film, 1 wt. % HMPQ in PMMA) was 25.5%. The “Quantum Yield (%)” value ([7]; Film, 5 wt. % HMPQ in PMMA) was 27.9%, the “Quantum Yield (%)” value ([7]; Film, 10 wt. % HMPQ in PMMA) was 29.4% and the “Quantum Yield (%)” value ([7]; Film, 20 wt. % HMPQ in PMMA) was 30.5%. For the same compound, the “Quantum Yield (%)” value ([7]; Film, 40 wt. % HMPQ in PMMA) was 30.0%, the “Quantum Yield (%)” value ([7]; Film, 60 wt. % HMPQ in PMMA) was 27.1% and the “Quantum Yield (%)” value ([7]; Film, 100 wt. % HMPQ) was 23.0%. For the same compound, the “Quantum Yield (%)” value ([7]; In DMSO Solution, 10^−5 M) was 6.7%, the “Quantum Yield (%)” value ([7]; In THF Solution, 10^−5 M) was 2.4% and the “Quantum Yield (%)” value ([7]; Solid Powder) was 3.9%. For the same compound, the “penetration of the cell nucleus” value ([8]; BG4 as control) was “efficiently penetrated the cell nucleus”, the Overlap coefficient ([8]; FIG. 6C legend) was 0.943 and the “overlap coefficient with BG4” value ([8]; HMPQ 10 μM overnight) was 94.3%. The “effect” value [9] was “non-disruptive” and the “effect” value [10] was “non-disruptive”.
